What was measured:
Assay in all cases: relative viability (nuclei count vs DMSO), 5 days (fraction); higher = more cells survive
AZD6482 + Tozasertib = compound: Cc1cc([C@@H](C)Nc2ccccc2C(=O)O)c2nc(N3CCOCC3)cc(=O)n2c1 [AZD6482] + Cc1cc(Nc2cc(N3CCN(C)CC3)nc(Sc3ccc(NC(=O)C4CC4)cc3)n2)n[nH]1 [Tozasertib] (partner 0.1 µM)
Procedure, shortened: (§1)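 Dosing by pin tool came one day after lung cancer cell lines were seeded in 1536-well plates, using either one drug or a fixed anchor-drug dose plus five library-drug doses (not always all listed) in √10 steps. After 5 days, nuclei were counted on 4× images. Relative viability is treated-well nuclei count divided by vehicle-well nuclei count, and values are medians of duplicate plates.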

[1] = compound: COc1cc2nc(N3CCCN(C)CC3)nc(NC3CCN(Cc4ccccc4)CC3)c2cc1OC + CC1(C)CCC(c2ccc(Cl)cc2)=C(CN2CCN(c3ccc(C(=O)NS(=O)(=O)c4ccc(N[C@H](CCN5CCOCC5)CSc5ccccc5)c(S(=O)(=O)C(F)(F)F)c4)cc3)CC2)C1 [Navitoclax] (partner 0.5 µM)
Procedure, shortened: as §1

AZD6482 + Phenformin = compound: Cc1cc([C@@H](C)Nc2ccccc2C(=O)O)c2nc(N3CCOCC3)cc(=O)n2c1 [AZD6482] + N=C(N)NC(=N)NCCc1ccccc1 [Phenformin] (partner 250 µM)
Procedure, shortened: as §1

AZD6482 + Decitabine = compound: Cc1cc([C@@H](C)Nc2ccccc2C(=O)O)c2nc(N3CCOCC3)cc(=O)n2c1 [AZD6482] + Nc1ncn([C@H]2C[C@H](O)[C@@H](CO)O2)c(=O)n1 [Decitabine] (partner 2 µM)
Procedure, shortened: as §1

UMC-11
relative viability (AZD6482 + Tozasertib; first compound 0.08 µM): 0.19
relative viability (AZD6482 + Tozasertib; first compound 0.253 µM): 0.209
relative viability (AZD6482 + Tozasertib; first compound 0.8 µM): 0.186
relative viability (AZD6482 + Tozasertib; first compound 2.53 µM): 0.23
relative viability (AZD6482 + Tozasertib; first compound 8 µM): 0.201
relative viability ([1]; first compound 0.2 µM): 0.315
relative viability ([1]; first compound 0.6325 µM): 0.333
relative viability ([1]; first compound 2 µM): 0.317
relative viability ([1]; first compound 6.325 µM): 0.254
relative viability (AZD6482 + Phenformin; first compound 0.08 µM): 0.309
relative viability (AZD6482 + Phenformin; first compound 0.253 µM): 0.292
relative viability (AZD6482 + Phenformin; first compound 0.8 µM): 0.324
relative viability (AZD6482 + Phenformin; first compound 2.53 µM): 0.293
relative viability (AZD6482 + Phenformin; first compound 8 µM): 0.255
relative viability (AZD6482 + Decitabine; first compound 0.08 µM): 0.623
relative viability (AZD6482 + Decitabine; first compound 0.253 µM): 0.584
relative viability (AZD6482 + Decitabine; first compound 0.8 µM): 0.606
relative viability (AZD6482 + Decitabine; first compound 8 µM): 0.613

Source: the supplement of paper PMC10307832
